Experimental data: patent publication US20260137698A1, “CYCLIN-DEPENDENT KINASE 7 INHIBITORS” (JOINT STOCK COMPANY «BIOCAD», priority 2022, published 2026)

Experiments:
[1] = molecular target: CDK9/Cyclin K (Homo sapiens, UniProt P50750); assay: Inhibition of CDK9/Cyclin K kinase activity (ADP-Glo); type: biochemical; conditions: mean value from several measurements; read-out: IC50 CDK9/Cyclin K
Method: (§1) Measurements were carried out in a 5 μl reaction volume using a 384-well plate (Corning Inc., order no. 4513). The analyzed substances were titrated from 50 μM in increments of 4 at 11 concentration points in a normal strength kinase buffer A (Thermo Fisher Scientific Inc, cat. no. PV3189) supplemented with DTT (Sigma, orde. no. 646563-10X.5ML) and prepared with water (Panreac, order no. 701074). Kinase was diluted in an analogous buffer, mixed with test compounds in plate wells and preincubated for 10 minutes at 25° C. Following incubation, a mixture of reaction substrate (CDKtide (SignalChem, order no. C06-58) or Histone H1 (SignalChem, order no. H10-54N) or PDKtide (SignalChem, order no. P10-58) and ATP (SignalChem, order no. V915B) prepared on a normal strength kinase buffer A was added. 1% solution of dimethyl sulfoxide (DMSO) (Sigma-Aldrich, order no. D2438) in the reaction volume was used as a negative control. The final concentrations of all reaction components are shown in Table 5. The plate was centrifuged at 400 rcf (Eppendorf, 5804 R) for 1 minute and incubated for 40-60 minutes at 25° C. The amount of ATP consumed in the kinase reaction was then measured using the ADP-Glo™ detection system. Luminescence signal was measured using Spark 20M tablet multifunction reader (Tecan Group Ltd, Switzerland). IC50 value was calculated using Magellan 7.2 (Tecan Group Ltd, Switzerland) by approximating experimental points by four-parameter model with the optimization by Levenberg-Marquardt:
(§2) [formula] • where A is the upper asymptote; D is the lower asymptote; C is IC50, half-maximal inhibitory concentration of kinase, nM; B is the curvature (slope).

[2] = system: MDA-MB-468 (triple negative breast cancer); assay: Antiproliferative assay on MDA-MB-468 cells (AlamarBlue, 96 h); type: cell-based; conditions: Homo sapiens, mean value from several measurements
Method: The antiproliferative activity of CDK7 inhibitors according to the present invention was evaluated in a cell test using continuous cell cultures: MDA-MB-468 (triple negative breast cancer, ATCC® HTB-132™) and NCl-H82 (small cell lung cancer, ATCC® HTB-175™) using a viable AlamarBlue dye (Thermo Fisher Scientific Inc, order no. DAL1100). The cells were grown in DMEM (PanEco, order no. C330π) and RPMI-1640 (PanEco, order no. C330π), respectively. The basal growth medium was enriched with L-glutamine at a concentration of 2 mM (PanEco, order no. Φ032) and 10% fetal bovine serum (Gibco, order no. 16140-071). The night before measurement, MDA-MB-468 adherent cells were detached from plastic with a solution of trypsin-EDTA (PanEco, order no. Π039π), the solution was then inactivated by a DMEM complete medium, centrifuged at 1000 RPM (Eppendorf, 5804 R), a suspension of cells was prepared in a DMEM complete medium, introduced into 96-well culture plates (Corning Inc, order no. 3599) at 8×10^3 cells in 100 μl of medium per well. The next day, test compounds were dissolved in DMSO and diluted with a DMEM complete medium to a final concentration ranging from 50 μM to 10 pM. Diluted compounds in a volume of 50 μl were introduced into the plate wells with cells in triplicates (the final concentration of DMSO was no more than 1%) and incubated at 37° C. in an incubator with 5% CO2 for 96 hours. NCl-H82 suspension cell line was prepared on the day of the analysis. 10×10^3 cells in 100 μl of an RPMI-1640 complete medium were added to each well of a 96-well plate. The procedure for sample dilution is as described above. Cells with test compounds were incubated at 37° C. in an incubator with 5% CO2 for 120 hours. Following incubation, […] of AlamarBlue reagent (Thermo Fisher Scientific Inc., order no. DAL1100) was added to the wells, the contents of the plates were stirred in an orbital shaker (Biosan, Latvia), then further incubated for 5.5-6 hours at 37° C. in an incubator with 5% CO2. The number of viable cells was detected using the Infinite M200Pro microplate spectrophotometer (Tecan Group Ltd, Switzerland) by way of measuring a fluorescent signal at an excitation wavelength (λEx) of 540 nm and an emission wavelength (λEm) of 590 nm.
IC50 value was calculated using the Magellan software (Tecan Group Ltd, Switzerland) by approximating experimental points by four-parameter model with the optimization by Levenberg-Marquardt: […]

[3] = molecular target: CDK2/Cyclin A (Homo sapiens, UniProt P24941); assay: Inhibition of CDK2/Cyclin A kinase activity (ADP-Glo); type: biochemical; conditions: mean value from several measurements; read-out: IC50 CDK2/Cyclin A
Method: as §1, §2

[4] = molecular target: CDK7/Cyclin H/MNAT1 (Homo sapiens, UniProt P50613); assay: Inhibition of CDK7/Cyclin H/MNAT1 kinase activity (ADP-Glo); type: biochemical; conditions: mean value from several measurements; read-out: IC50 CDK7/Cyclin H/MNAT
Method: as §1, §2

[5] = General cytotoxicity on primary differentiated HepaRG cells (72 h); type: cell-based; conditions: human, general toxicity, mean value from several measurements
Excerpt: General cytotoxicity of CDK7 inhibitors according to the present invention was investigated using primary differentiated HepaRG cells (Biopredic Int, order no. HPR101). A week before the measurement, the cells were thawed and maintained in Basal hepatic cell medium (Biopredic Int, order no. MIL700079) supplemented with HepaRG maintenance/metabolism medium supplement with antibiotics (Biopredic Int, order no. ADD620C). The medium in vials with cells was changed every 2-3 days. The night before the test, the cells were plated in wells of 96-well plates (Corning Inc., order no. 3599) at 25×10^3 cells in 100 μl of medium per well. The next day, test compounds were introduced into plate wells with cells, untitrated at a concentration ranging from 200 μM to 0.2 nM, and incubated for 72 hours. Cell viability was assessed as described above.

Chain of CDK7/Cyclin H/MNAT1 (P50613 whole entry): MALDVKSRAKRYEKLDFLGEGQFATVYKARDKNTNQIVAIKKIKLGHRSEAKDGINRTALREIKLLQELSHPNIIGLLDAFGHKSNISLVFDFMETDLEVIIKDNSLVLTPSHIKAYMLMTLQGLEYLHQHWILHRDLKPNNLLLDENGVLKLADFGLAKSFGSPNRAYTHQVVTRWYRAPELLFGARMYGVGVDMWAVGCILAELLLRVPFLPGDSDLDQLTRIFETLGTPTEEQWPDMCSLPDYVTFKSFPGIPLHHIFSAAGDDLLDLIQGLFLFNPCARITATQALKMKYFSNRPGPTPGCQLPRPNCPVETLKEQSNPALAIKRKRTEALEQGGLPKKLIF
Chain of CDK7/Cyclin H/MNAT1 (P51946 whole entry partner): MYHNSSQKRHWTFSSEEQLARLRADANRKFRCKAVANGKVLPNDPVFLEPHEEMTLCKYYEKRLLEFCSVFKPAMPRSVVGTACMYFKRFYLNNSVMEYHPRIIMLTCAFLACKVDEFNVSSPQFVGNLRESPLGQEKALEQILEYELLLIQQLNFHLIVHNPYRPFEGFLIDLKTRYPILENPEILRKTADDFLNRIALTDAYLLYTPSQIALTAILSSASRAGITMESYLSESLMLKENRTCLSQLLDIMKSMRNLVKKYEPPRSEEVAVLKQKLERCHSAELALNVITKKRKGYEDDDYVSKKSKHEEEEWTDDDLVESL
Chain of CDK7/Cyclin H/MNAT1 (P51948 whole entry partner): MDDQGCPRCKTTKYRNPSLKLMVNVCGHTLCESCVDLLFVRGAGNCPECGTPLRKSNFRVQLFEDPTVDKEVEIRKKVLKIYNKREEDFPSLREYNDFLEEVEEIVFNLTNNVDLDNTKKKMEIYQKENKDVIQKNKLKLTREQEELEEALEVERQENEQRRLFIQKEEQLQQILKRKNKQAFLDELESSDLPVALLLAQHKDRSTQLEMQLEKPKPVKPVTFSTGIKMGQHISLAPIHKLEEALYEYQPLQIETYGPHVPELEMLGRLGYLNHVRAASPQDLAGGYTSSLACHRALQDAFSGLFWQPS
Chain of CDK9/Cyclin K (P50750 whole entry): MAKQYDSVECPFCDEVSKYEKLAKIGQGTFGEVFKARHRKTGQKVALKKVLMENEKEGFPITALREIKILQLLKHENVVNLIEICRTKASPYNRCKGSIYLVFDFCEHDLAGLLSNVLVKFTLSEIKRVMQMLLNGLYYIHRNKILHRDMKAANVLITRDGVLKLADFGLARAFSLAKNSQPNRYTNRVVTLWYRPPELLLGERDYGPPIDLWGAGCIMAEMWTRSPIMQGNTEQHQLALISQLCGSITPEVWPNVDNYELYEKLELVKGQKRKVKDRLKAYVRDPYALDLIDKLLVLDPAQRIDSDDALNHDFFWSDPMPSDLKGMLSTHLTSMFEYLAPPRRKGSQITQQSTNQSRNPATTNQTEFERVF
Chain of CDK9/Cyclin K (O75909 whole entry partner): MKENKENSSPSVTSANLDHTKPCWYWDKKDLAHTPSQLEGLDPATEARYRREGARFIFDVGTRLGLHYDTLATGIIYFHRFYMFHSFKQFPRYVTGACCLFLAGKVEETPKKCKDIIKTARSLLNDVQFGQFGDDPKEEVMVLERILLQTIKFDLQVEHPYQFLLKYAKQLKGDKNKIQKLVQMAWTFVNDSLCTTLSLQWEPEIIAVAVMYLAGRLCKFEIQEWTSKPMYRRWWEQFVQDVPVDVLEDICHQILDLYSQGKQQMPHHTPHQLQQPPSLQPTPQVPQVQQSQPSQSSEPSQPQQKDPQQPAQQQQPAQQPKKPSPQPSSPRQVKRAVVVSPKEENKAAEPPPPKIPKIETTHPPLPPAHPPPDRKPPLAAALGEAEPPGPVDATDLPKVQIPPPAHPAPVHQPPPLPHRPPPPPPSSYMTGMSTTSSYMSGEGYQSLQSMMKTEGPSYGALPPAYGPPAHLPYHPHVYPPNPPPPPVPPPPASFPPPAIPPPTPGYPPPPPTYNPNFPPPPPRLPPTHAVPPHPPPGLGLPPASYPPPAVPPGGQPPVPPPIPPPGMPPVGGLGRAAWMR

| SMILES | IC50 [1] [µM] | IC50 [2] [µM] | IC50 [3] [µM] | IC50 [4] [µM] | CC50 at 72 h [5] [µM] |
| --- | --- | --- | --- | --- | --- |
| CN1CCN(C(=O)c2cc(-c3nc(N[C@H]4CCCNC4)ncc3C(F)(F)F)c[nH]2)CC1 [CDK7_539, 4-[5-(4-methylpiperazine-1-carbonyl)-1H-pyrrol-3-yl]-N-[(3S)-piperidin-3-yl]-5-(trifluoromethyl) pyrimidin-2-amine] | 0.05 to 0.2 | 0.1 to 1 | > 0.2 | 0.005 to 0.05 | > 2 |
| O=C(Nc1ncc[nH]1)c1cc(-c2nc(N[C@H]3CCCNC3)ncc2C(F)(F)F)c[nH]1 [CDK7_833, N-(1H-imidazol-2-yl)-4-(2-{[(3S)-piperidin-3-yl]amino}-5-(trifluoromethyl)pyrimidin-4-yl)-1H-pyrrole-2-carboxamide] | 0.05 to 0.2 | 0.1 to 1 | > 0.2 | 0.005 to 0.05 | 0.5 to 2 |
| O=C(Nc1ccncc1)c1cc(-c2nc(N[C@H]3CCCNC3)ncc2C(F)(F)F)c[nH]1 [CDK7_836, 4-(2-{[(3S)-piperidin-3-yl]amino}-5-(trifluoromethyl)pyrimidin-4-yl)-N-(pyridin-4-yl)-1H-pyrrole-2-carboxamide] | 0.05 to 0.2 | 0.1 to 1 | > 0.2 | 0.005 to 0.05 | 0.5 to 2 |
| N#Cc1ccc(NC(=O)c2cc(-c3nc(N[C@H]4CCCNC4)ncc3C(F)(F)F)c[nH]2)cc1 [CDK7_837, N-(4-cyanophenyl)-4-(2-{[(3S)-piperidin-3-yl]amino}-5-(trifluoromethyl)pyrimidin-4-yl)-1H-pyrrole-2-carboxamide] | > 0.2 | 0.1 to 1 | > 0.2 | 0.05 to 0.2 | 0.5 to 2 |
| O=C(c1cc(-c2nc(N[C@H]3CCCNC3)ncc2C(F)(F)F)c[nH]1)N1CCOCC1 [CDK7_849, 4-[5-(morpholine-4-carbonyl)-1H-pyrrol-3-yl]-N-[(3S)-piperidin-3-yl]-5-(trifluoromethyl) pyrimidin-2-amine] | 0.05 to 0.2 | 0.01 to 0.1 | > 0.2 | < 0.005 | 0.5 to 2 |
| O=C(NC1CCOCC1)c1cc(-c2nc(N[C@H]3CCCNC3)ncc2C(F)(F)F)c[nH]1 [CDK7_850, N-(oxan-4-yl)-4-(2-{[(3S)-piperidin-3-yl]amino}-5-(trifluoromethyl)pyrimidin-4-yl)-1H-pyrrole-2-carboxamide] | 0.05 to 0.2 | 0.1 to 1 | > 0.2 | 0.005 to 0.05 | > 2 |

The next lines start with results.

| IC50 [1] [µM] | IC50 [2] [µM] | IC50 [3] [µM] | IC50 [4] [µM] | SMILES | CC50 at 72 h [5] [µM] |
| --- | --- | --- | --- | --- | --- |
| 0.005 to 0.05 | 0.01 to 0.1 | > 0.2 | 0.005 to 0.05 | O=C(Nc1nccs1)c1cc(-c2nc(N[C@H]3CCCNC3)ncc2C(F)(F)F)c[nH]1 [CDK7_834, 4-(2-{[(3S)-piperidin-3-yl]amino}-5-(trifluoromethyl)pyrimidin-4-yl)-1N-(1,3-thiazol-2-yl)-1H-pyrrole-2-carboxamide] | 0.1 to 0.5 |
| 0.005 to 0.05 | 0.01 to 0.1 | > 0.2 | 0.005 to 0.05 | CNC(=O)c1cc(-c2nc(N[C@H]3CCCNC3)ncc2C(F)(F)F)c[nH]1 [CDK7_846, N-methyl-4-(2-{[(3S)-piperidin-3-yl]amino}-5-(trifluoromethyl)pyrimidin-4-yl)-1H-pyrrole-2-carboxamide] | 0.5 to 2 |
| 0.005 to 0.05 | 0.01 to 0.1 | > 0.2 | 0.005 to 0.05 | O=C(NCC(F)(F)F)c1cc(-c2nc(N[C@H]3CCCNC3)ncc2C(F)(F)F)c[nH]1 [CDK7_847, 4-(2-{[(3S)-piperidin-3-yl]amino}-5-(trifluoromethyl)pyrimidin-4-yl)-N-(2,2,2-trifluoroethyl)-1H-pyrrole-2-carboxamide] | 0.1 to 0.5 |
| 0.005 to 0.05 | > 1 | > 0.2 | 0.005 to 0.05 | CS(=O)(=O)CCNC(=O)c1cc(-c2nc(N[C@H]3CCCNC3)ncc2C(F)(F)F)c[nH]1 [CDK7_848, N-(2-methanesulfon-ylethyl)-4-(2-{[(3S)-piperidin-3-yl]amino}-5-(trifluoromethyl)pyrimidin-4-yl)-1H-pyrrole-2-carboxamide] | > 2 |
